Patent publication US8603986B2, “Compounds and methods for modulating cadherin-mediated processes” (McGill University, priority 2005, dated 2013)
“Also recorded” adds a separate entry of the source. Marks after values point to notes of the source that are not given here. Each block holds one substance with its values, some of them ahead of it.

How the values were obtained:
[1] = molecular target: T1, E-cadherin/Fc chimeric protein (Homo sapiens, UniProt P12830); assay: Cadherin/Fc binding assay: phage ELISA on E-cadherin/Fc; parameters: key: +: Phage bound to the chimeric protein; −: No phage bound to the chimeric protein
T1 construct: extracellular domain of human E-cadherin (Asp155-Ile707); purchased R&D Systems, Minneapolis, Minn
T1 sequence (P12830 155-707): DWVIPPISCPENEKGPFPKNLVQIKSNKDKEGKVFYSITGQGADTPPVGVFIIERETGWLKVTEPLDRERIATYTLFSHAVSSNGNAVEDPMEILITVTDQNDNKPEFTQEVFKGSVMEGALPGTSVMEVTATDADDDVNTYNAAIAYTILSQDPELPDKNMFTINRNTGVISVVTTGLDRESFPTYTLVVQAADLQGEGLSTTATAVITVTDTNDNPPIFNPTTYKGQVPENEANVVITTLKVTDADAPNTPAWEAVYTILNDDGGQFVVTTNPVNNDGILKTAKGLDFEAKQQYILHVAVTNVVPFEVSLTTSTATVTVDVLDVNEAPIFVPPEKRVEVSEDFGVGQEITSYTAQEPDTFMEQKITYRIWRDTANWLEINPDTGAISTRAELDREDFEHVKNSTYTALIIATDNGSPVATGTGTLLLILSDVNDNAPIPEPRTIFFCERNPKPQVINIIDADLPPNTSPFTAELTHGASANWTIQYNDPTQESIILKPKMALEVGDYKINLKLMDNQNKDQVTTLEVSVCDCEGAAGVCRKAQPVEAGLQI
Excerpt: (§1) The peptide libraries, Ph.D.-C7C™ and Ph.D.-12™ (New England BioLabs) were used in this study. These libraries are composed of 2×10^9 randomized 7 amino acid sequences flanked by cysteine residues and linear 12 amino acid sequences, respectively. The amino acid sequences are incorporated into the minor coat protein, pIII, of M13 phage. The N-cadherin/Fc chimeric protein (R&D Systems, Minneapolis, Minn.) consists of the extracellular domain of human N-cadherin (Asp160-Ala724) and the Fc region of human IgG1. The E-cadherin/Fc chimeric protein (R&D Systems, Minneapolis, Minn.) consists of the extracellular domain of human E-cadherin (Asp155-Ile707) and the Fc region of human IgG1.
(§2) The binding of each clone to the cadherin/Fc chimeric proteins was confirmed by ELISA. Wells of ProBind microtiter plates (Falcon) were coated with either N-cadherin/Fc or E-cadherin/Fc chimeric protein (100 ng/well) or human IgG1 (which contains the Fc fragment) (100 ng/well). After blocking the nonspecific sites with TBS containing 3% BSA and 1.2 mM CaCl2 for 1 h at 37° C., phage clones (10^9 pfu) diluted in TBST containing 3% BSA and 1.2 mM CaCl2 (100 μl/well). Non-coated wells were also used to exclude any phage that bound to the plastic surface. After 1 h incubation at room temperature, wells were washed 3 times with TBST containing 3% BSA and 1.2 mM CaCl2. M13 phage without any insert were used to control the non-specific binding of the phage itself to the target. Monoclonal anti-M13 antibody conjugated to horseradish peroxidase (Amersham Biosciences, Piscataway, N.J.) was diluted in TBST containing 3% BSA and 1.2 mM CaCl2 (1:2,000) and added to each well (100 μl/well). After 1 h incubation at room temperature, wells were washed three times with TBST containing 3% BSA and 1.2 mM CaCl2 and once with TBS containing 1.2 mM CaCl2. Horseradish peroxidase substrate, TMB (Sigma), was added to each well (100 μl/well and after color development the reaction was stopped by addition of 100 μl 0.5 M sulphuric acid to each well. The intensity of the color was measured at 450 nm.
(§3) The phage clones shown to bind to the N-cadherin/Fc chimeric protein by ELISA were also evaluated for their ability to bind to E-cadherin/Fc and VE-cadherin/Fc chimeric proteins. The phage clones shown to bind to the E-cadherin/Fc chimeric protein by ELISA were also evaluated for their ability to bind to N-cadherin/Fc and VE-cadherin/Fc chimeric proteins. The same ELISA protocol described in the previous section was used to perform this evaluation with the exception that the wells were coated with either 100 ng N-cadherin/Fc, E-cadherin/Fc or VE-cadherin/Fc chimeric protein (R&D Systems, Minneapolis, Minn.).

[2] = molecular target: T2, N-cadherin/Fc chimeric protein (Homo sapiens, UniProt P19022); assay: Cadherin/Fc binding assay: phage ELISA on N-cadherin/Fc; parameters: key to ELISA Phage Binding to N-Cadherin/Fc Chimeric Protein 1.2 mM calcium / ELISA Phage Binding to N-Cadherin/Fc Chimeric Protein 2 mM EDTA / ELISA Phage Binding to Cadherin/Fc Chimeric Proteins N−: +: Phage bound to the chimeric protein; −: No phage bound to the chimeric protein
T2 construct: extracellular domain of human N-cadherin (Asp160-Ala724); purchased R&D Systems, Minneapolis, Minn
T2 sequence (P19022 160-724): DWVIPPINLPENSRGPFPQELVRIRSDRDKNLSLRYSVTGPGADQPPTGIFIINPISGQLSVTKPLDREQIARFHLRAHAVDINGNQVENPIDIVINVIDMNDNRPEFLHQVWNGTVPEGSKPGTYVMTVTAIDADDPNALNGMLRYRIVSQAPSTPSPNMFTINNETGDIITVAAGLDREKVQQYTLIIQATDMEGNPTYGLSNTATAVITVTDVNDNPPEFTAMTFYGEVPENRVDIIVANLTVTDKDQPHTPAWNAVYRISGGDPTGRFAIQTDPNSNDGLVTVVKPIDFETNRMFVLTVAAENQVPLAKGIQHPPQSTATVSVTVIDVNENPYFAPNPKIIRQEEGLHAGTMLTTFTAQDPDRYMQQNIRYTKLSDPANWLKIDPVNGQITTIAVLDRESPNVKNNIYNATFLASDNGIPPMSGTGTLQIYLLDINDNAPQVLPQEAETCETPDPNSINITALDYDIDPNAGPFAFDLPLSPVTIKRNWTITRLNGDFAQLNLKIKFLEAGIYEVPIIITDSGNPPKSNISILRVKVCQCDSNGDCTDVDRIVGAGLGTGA
Excerpt: as §1
The binding of each clone to the cadherin/Fc chimeric proteins was confirmed by ELISA. Wells of ProBind microtiter plates (Falcon) were coated with either N-cadherin/Fc or E-cadherin/Fc chimeric protein (100 ng/well) or human IgG1 (which contains the Fc fragment) (100 ng/well). […] Non-coated wells were also used to exclude any phage that bound to the plastic surface. […] M13 phage without any insert were used to control the non-specific binding of the phage itself to the target. […] […] Horseradish peroxidase substrate, TMB (Sigma), was added to each well (100 μl/well and after color development the reaction was stopped by addition of 100 μl 0.5 M sulphuric acid to each well. The intensity of the color was measured at 450 nm.
as §3

[3] = molecular target: T3, VE-cadherin/Fc chimeric protein (Homo sapiens, UniProt P33151); assay: Cadherin specificity: phage ELISA on VE-cadherin/Fc; format: binding; parameters: key: +: Phage bound to the chimeric protein; −: No phage bound to the chimeric protein
T3 construct: purchased R&D Systems, Minneapolis, Minn
T3 sequence (P33151 with tags, fused parts or gaps limits assumed, species assumed): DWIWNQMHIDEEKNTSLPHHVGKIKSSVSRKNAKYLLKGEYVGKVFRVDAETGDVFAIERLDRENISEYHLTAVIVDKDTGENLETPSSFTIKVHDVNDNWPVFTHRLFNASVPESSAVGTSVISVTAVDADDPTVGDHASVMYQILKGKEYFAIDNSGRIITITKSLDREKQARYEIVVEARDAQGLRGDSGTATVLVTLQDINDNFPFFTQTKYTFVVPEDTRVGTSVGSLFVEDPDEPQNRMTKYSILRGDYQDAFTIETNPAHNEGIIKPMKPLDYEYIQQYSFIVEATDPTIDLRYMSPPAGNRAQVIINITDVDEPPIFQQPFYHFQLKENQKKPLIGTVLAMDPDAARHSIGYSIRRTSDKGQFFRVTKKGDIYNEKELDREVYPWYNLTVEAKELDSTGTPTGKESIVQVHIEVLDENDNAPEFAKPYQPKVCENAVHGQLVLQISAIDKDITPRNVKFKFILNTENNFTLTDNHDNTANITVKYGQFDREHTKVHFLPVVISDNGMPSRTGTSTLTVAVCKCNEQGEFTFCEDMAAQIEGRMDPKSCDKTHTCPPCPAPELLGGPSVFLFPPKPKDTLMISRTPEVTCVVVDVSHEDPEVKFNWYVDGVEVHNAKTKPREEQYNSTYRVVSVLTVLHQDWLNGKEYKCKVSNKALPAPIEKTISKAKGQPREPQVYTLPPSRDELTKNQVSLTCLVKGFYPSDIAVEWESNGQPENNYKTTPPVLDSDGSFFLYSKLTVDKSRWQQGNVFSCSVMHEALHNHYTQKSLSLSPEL
Method: as §2, §3

[4] = tested on: SKOV3 human ovarian cancer cells; assay: Disruption of SKOV3 cell adhesion in confluent cultures; format: cell-based; parameters: key to Peptide Disrupts Adhesion of SKOV3 cells: +: yes; −: no; settings: for Peptide Disrupts Adhesion of SKOV3 cells: Table 8 summary; for effect on SKOV3 cell adhesion: confluent cultures, concentration not given
Method: SKOV3 human ovarian cancer cells (kind gift from Dr. Riaz Farookhi, McGill University, Montreal, Quebec) were cultured in MEM containing 1.25 μg/ml Fungizone, 100 U/ml penicillin 100 μg/ml streptomycin, 0.1 mM nonessential amino acids, 2 mM L-glutamine, 10 μg/ml ml gentamicin and 10% fetal bovine serum. All culture reagents were purchased from GIBCO (Burlington, ON). To obtain confluent cell cultures, 100,000 cells per well were plated onto a 4 well slide (NalgeNunc, Naperville, Ill.) and incubated for 24 h at 37° C., in a humidified atmosphere (5% CO2).
Depending on their solubility, peptides were dissolved directly in culture medium and added to confluent cell cultures at the indicated concentration, or they were dissolved in dimethylformamide (DMF) to obtain a 100× concentrated solution or in water to obtain a 10× concentrated solution. The peptide stock solutions were further diluted with culture medium to a final working concentration and added to confluent cell cultures. Culture medium containing 1% solvent was used as a control. At the end of the treatment, cells were either examined by phase contrast microscopy, or fixed with 4% paraformaldehyde in PBS and stained with hematoxylin prior to light microscopic examination.
Confluent cultures of SKOV3 cells were incubated in the presence of individual peptides.

[5] = Table 7, Ph.D.-12 clones selected on E-cadherin/Fc
[6] = Table 2, Ph.D.-C7C library clones
[7] = Table 6, Ph.D.-C7C clones selected on E-cadherin/Fc
[8] = Table 4, Ph.D.-12 library clones
[9] = Table 3, clones selected in the absence of calcium

ELISA Phage Binding to Cadherin/Fc Chimeric Proteins E− [1, 6]: − | ELISA Phage Binding to N-Cadherin/Fc Chimeric Protein 1.2 mM calcium [2, 6]: + | ELISA Phage Binding to N-Cadherin/Fc Chimeric Protein 2 mM EDTA [2, 6]: − | ELISA Phage Binding to Cadherin/Fc Chimeric Proteins VE− [3, 6]: −
Substance: WEVRLTEKC [Nc a3]

ELISA Phage Binding to Cadherin/Fc Chimeric Proteins E− [1, 6]: − | phage binding to N-cadherin/Fc chimeric protein by ELISA [2]: positive ELISA signal | ELISA Phage Binding to N-Cadherin/Fc Chimeric Protein 1.2 mM calcium [2, 6]: +* | ELISA Phage Binding to N-Cadherin/Fc Chimeric Protein 2 mM EDTA [2, 6]: −** | ELISA Phage Binding to Cadherin/Fc Chimeric Proteins VE− [3, 6]: −
Substance: WLQPYFPSY [Nc 1]

ELISA Phage Binding to Cadherin/Fc Chimeric Proteins E− [1, 8]: + | ELISA Phage Binding to N-Cadherin/Fc Chimeric Protein 1.2 mM calcium [2, 8]: + | ELISA Phage Binding to N-Cadherin/Fc Chimeric Protein 2 mM EDTA [2, 8]: + | ELISA Phage Binding to Cadherin/Fc Chimeric Proteins VE− [3, 8]: −
Substance: SWLAVWPATGAS [Nc 12-a10]

ELISA Phage Binding to Cadherin/Fc Chimeric Proteins E− [1, 9]: −** | ELISA Phage Binding to N-Cadherin/Fc Chimeric Protein 1.2 mM calcium [2, 9]: +* | ELISA Phage Binding to N-Cadherin/Fc Chimeric Protein 2 mM EDTA [2, 9]: + | ELISA Phage Binding to Cadherin/Fc Chimeric Proteins VE− [3, 9]: −
Substance: WYVCVGAHC [NoCa1]
phage binding to N-cadherin/Fc chimeric protein by ELISA [2]: good ELISA signal; also recorded: strong ELISA signal

ELISA Phage Binding to Cadherin/Fc Chimeric Proteins E− [1, 6]: − | ELISA Phage Binding to N-Cadherin/Fc Chimeric Protein 1.2 mM calcium [2, 6]: + | ELISA Phage Binding to N-Cadherin/Fc Chimeric Protein 2 mM EDTA [2, 6]: − | ELISA Phage Binding to Cadherin/Fc Chimeric Proteins VE− [3, 6]: −
Substance: WTVCPIGNC [Nc 8]

ELISA Phage Binding to Cadherin/Fc Chimeric Proteins E− [1, 8]: + | ELISA Phage Binding to N-Cadherin/Fc Chimeric Protein 1.2 mM calcium [2, 8]: + | ELISA Phage Binding to N-Cadherin/Fc Chimeric Protein 2 mM EDTA [2, 8]: + | ELISA Phage Binding to Cadherin/Fc Chimeric Proteins VE− [3, 8]: −
Substance: EWMIHYDSALTS [Nc 12-a6]

ELISA Phage Binding to Cadherin/Fc Chimeric Proteins E− [1, 6]: − | ELISA Phage Binding to N-Cadherin/Fc Chimeric Protein 1.2 mM calcium [2, 6]: + | ELISA Phage Binding to N-Cadherin/Fc Chimeric Protein 2 mM EDTA [2, 6]: − | ELISA Phage Binding to Cadherin/Fc Chimeric Proteins VE− [3, 6]: −
Substance: WELCVSSSC [Nc 25]

ELISA Phage Binding to Cadherin/Fc Chimeric Proteins E− [1, 8]: + | ELISA Phage Binding to N-Cadherin/Fc Chimeric Protein 1.2 mM calcium [2, 8]: + | ELISA Phage Binding to N-Cadherin/Fc Chimeric Protein 2 mM EDTA [2, 8]: + | ELISA Phage Binding to Cadherin/Fc Chimeric Proteins VE− [3, 8]: −
Substance: AWQVHYSYVASS [Nc 12-a7]

The next lines start with the substance.

Substance: QWTITYPKPPAL [Ec 12-13]
ELISA Phage Binding to Cadherin/Fc Chimeric Proteins E− [1, 5]: + | ELISA Phage Binding to Cadherin/Fc Chimeric Proteins N− [2, 5]: + | ELISA Phage Binding to Cadherin/Fc Chimeric Proteins VE− [3, 5]: −

Substance: EWDFFWPPTQTP [Ec 12-19]
ELISA Phage Binding to Cadherin/Fc Chimeric Proteins E− [1, 5]: + | ELISA Phage Binding to Cadherin/Fc Chimeric Proteins N− [2, 5]: + | ELISA Phage Binding to Cadherin/Fc Chimeric Proteins VE− [3, 5]: −

Substance: SWTFYWPDAQLG [Ec 12-06]
ELISA Phage Binding to Cadherin/Fc Chimeric Proteins E− [1, 5]: + | ELISA Phage Binding to Cadherin/Fc Chimeric Proteins N− [2, 5]: + | ELISA Phage Binding to Cadherin/Fc Chimeric Proteins VE− [3, 5]: −

Substance: WTFNFCTAC [Ec a5]
ELISA Phage Binding to Cadherin/Fc Chimeric Proteins E− [1, 7]: + | ELISA Phage Binding to Cadherin/Fc Chimeric Proteins N− [2, 7]: + | ELISA Phage Binding to Cadherin/Fc Chimeric Proteins VE− [3, 7]: −

Substance: SWELYYPLRANL [Ec 12-a2]
ELISA Phage Binding to Cadherin/Fc Chimeric Proteins E− [1, 5]: + | ELISA Phage Binding to Cadherin/Fc Chimeric Proteins N− [2, 5]: + | ELISA Phage Binding to Cadherin/Fc Chimeric Proteins VE− [3, 5]: −

Substance: H-RYVCVGAH-NH2 [reference compound]
Peptide Disrupts Adhesion of SKOV3 cells [4]: − | effect on SKOV3 cell adhesion [4]: had no effect on cell adhesion

Substance: QWQLHWPASKQA [Ec 12-11]
ELISA Phage Binding to Cadherin/Fc Chimeric Proteins E− [1, 5]: + | ELISA Phage Binding to Cadherin/Fc Chimeric Proteins N− [2, 5]: + | ELISA Phage Binding to Cadherin/Fc Chimeric Proteins VE− [3, 5]: −

Substance: H-AELRVSSP-NH2 [reference compound]
Peptide Disrupts Adhesion of SKOV3 cells [4]: − | effect on SKOV3 cell adhesion [4]: had no biological activity

Substance: WQWCFKATC [Ec 21]
ELISA Phage Binding to Cadherin/Fc Chimeric Proteins E− [1, 7]: + | ELISA Phage Binding to Cadherin/Fc Chimeric Proteins N− [2, 7]: + | ELISA Phage Binding to Cadherin/Fc Chimeric Proteins VE− [3, 7]: −
